Literature values in patent publication US20140023695A1, “PATCH PREPARATION” (priority 2011, published 2014).

How the values were obtained:
dopamine D2 = dopamine D2 (Homo sapiens, UniProt P14416); conditions: as compared to existing antipsychotic, haloperidol
serotonin 5-HT2 receptor = conditions: as compared to existing antipsychotic, haloperidol

dopamine D2, sequence (P14416 whole entry): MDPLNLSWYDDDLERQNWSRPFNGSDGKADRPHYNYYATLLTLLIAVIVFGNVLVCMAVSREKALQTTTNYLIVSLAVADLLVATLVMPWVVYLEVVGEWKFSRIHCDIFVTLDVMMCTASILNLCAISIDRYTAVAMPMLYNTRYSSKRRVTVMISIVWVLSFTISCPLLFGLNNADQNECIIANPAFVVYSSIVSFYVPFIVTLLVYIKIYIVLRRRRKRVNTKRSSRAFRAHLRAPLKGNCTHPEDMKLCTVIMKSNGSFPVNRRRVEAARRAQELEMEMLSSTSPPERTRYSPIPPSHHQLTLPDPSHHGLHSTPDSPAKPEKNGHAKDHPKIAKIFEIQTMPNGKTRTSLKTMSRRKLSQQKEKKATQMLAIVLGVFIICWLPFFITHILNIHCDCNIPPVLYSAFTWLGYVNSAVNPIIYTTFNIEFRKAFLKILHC

affinity for dopamine D2 (dopamine D2): higher affinity
affinity for serotonin 5-HT2 receptor (serotonin 5-HT2 receptor): higher affinity
Compound: CCN1CCN(c2cc(-c3ccc(F)cc3)c3c(n2)CCCCCC3)CC1 [compound A, 2-(4-Ethyl-1-piperazinyl)-4-(4-fluorophenyl)-5,6,7,8,9,10-hexahydrocycloocta[b]pyridine]
